“And” between values parts separate entries of the source, which are not always exact repeats. Equal entries are not always repeated.
system: Salmonella Typhi PhoP-promoter GFP reporter, fluorescence, 4 h; test: PhoP regulon inhibitors, Salmonella typhi PhoP promoter GFP reporter, confirmatory (AID 1850)

SMILES	IC50
O=C(/C=C(\O)c1ccccc1)C(=O)NNC(=O)c1ccccc1	23.8 µM
OCCN1CCN(C2CCC(c3ccc(F)cc3)c3ccc(F)cc32)CC1 (stereo unspecified)	36.6 µM
Cc1ccc(Nc2cc(C)nn2-c2nc(C)cc(=O)[nH]2)cc1	11.9 µM
Nc1cc(Cl)c2nonc2c1[N+](=O)[O-]	38.4 µM
c1ccc(CNc2nc(N3CCN(Cc4ccccc4)CC3)nc3ccccc23)cc1	18.2 µM
CN(C)CC/C=C1\c2ccccc2Sc2ccc(Cl)cc21	72.2 µM
OCCNCc1cc(Br)ccc1OCc1ccc(Cl)cc1	86.8 µM
NC1=NC[C@H](Cc2ccccc2)N1CCCCC1CCCCC1	22 µM
CCOc1cc(CNCCCN2CCOCC2)cc(Br)c1OCC(=O)Nc1cccc(C(F)(F)F)c1	84.6 µM
O=C(CSc1nc2ccccc2[nH]1)Nc1ccc(F)c(F)c1	62.5 µM
CNCCCCOc1ccc(C(C)(C)C)cc1Cl	77 µM
Fc1ccc(CCNCc2ccc(Cl)c(Cl)c2)cc1	36.9 µM
O=C(c1ccccc1)c1c2c(cc3sc4ccccc4[n+]13)-c1cccc3cccc-2c13	35.9 µM
OC1(c2ccc(Cl)cc2)CCN(Cc2c[nH]c3ccccc23)CC1	69.5 µM
COc1ccc2c(c1OC)C(=O)N(c1ccc(C)cc1)C2=O	143 µM
CS(=O)(=O)c1ccc([C@@H](O)[C@@H](CF)NC(=O)C(Cl)Cl)cc1	5.21 µM
CN1C(=O)NC(c2ccc(O)cc2)C(C(=O)c2cccs2)C1(O)C(F)(F)F (stereo unspecified)	38.1 µM
COc1cc([N+](=O)[O-])cc(/C=N/NC(=O)C(O)(c2ccccc2)c2ccccc2)c1O	107 µM
CCn1cc(C(=O)O)c(=O)c2cc(F)c(N3CCN(C(=S)NC(=O)c4ccc(Br)cc4)CC3)cc21	12.7 µM

SMILES	IC50
O=[N+]([O-])/C=C/c1cc2ccccc2[nH]1	95 µM
COc1ccc2[nH]c3c(C)c4ccncc4c(C)c3c2c1	20.5 µM
Cc1ccc(C(=O)N/C(=C\c2ccc(-c3ccc(Cl)cc3)o2)C(=O)NCCCN(C)C)cc1	37.6 µM
COc1ccc(CNCCc2ccc(Cl)cc2)cc1OCc1ccccc1	66.4 µM
CC[C@@H](C)[C@H](CNC)NC[C@@H](Cc1cccc2ccccc12)NCCc1cccc(C(F)(F)F)c1	19.9 µM
NC1=NC[C@H](c2ccccc2)N1CCCCC1CCCCC1	34.8 µM
OCCN1CCN(CCCN2c3ccccc3Sc3ccc(C(F)(F)F)cc32)CC1	105 µM
CCCCCCCCNC(C)C(O)c1ccc(SC(C)C)cc1 (stereo unspecified)	25.2 µM
Nc1ncn(C2O[C@H](CO)[C@@H](O)[C@H]2O)c(=O)n1 (stereo partly specified)	34 µM
Cc1ccc(Nc2cc(C)c3c(O)cccc3n2)cc1C	6.64 µM
CN(C)c1ccc(O)c2c1CC1CC3[C@@H](N(C)C)C(=O)C(C(N)=O)=C(O)[C@]3(O)C(=O)C1=C2O (stereo partly specified)	8.82 µM
O=C1NCCN1c1ncc([N+](=O)[O-])s1	40.8 µM
CC(C)(C)/C(O)=C/c1nc2cc(Cl)ccc2oc1=O	18.2 µM
O=C(CCC(=O)Nc1ccc(Cl)cc1Cl)N/N=C/c1ccc([N+](=O)[O-])o1	23.5 µM
CCCCN(CCCC)C(=O)c1cn(CC)c2cc(N3CCN(C)CC3)c(F)cc2c1=O	4.23 µM
COc1ccc(/C=C/c2cc[n+](C(=O)Cc3ccccc3)cc2)cc1	118 µM
Cc1ccc(C(c2cc(Cl)c3cccnc3c2O)N2CCN(C)CC2)cc1 (stereo unspecified)	37 µM
Cc1ccc(OCC(=O)N/N=C/c2ccc([N+](=O)[O-])o2)cc1	21.9 µM
O=C(C[n+]1cc(-c2ccc(Cl)c(Cl)c2)n2c1CCC2)N1c2ccccc2Sc2ccccc21	26.9 µM

SMILES	IC50
OC(CNCCc1ccc(C(F)(F)F)cc1)COC(c1ccccc1)c1ccccc1 (stereo unspecified)	25.8 µM
CN(C)CCCNC(=S)NCC(c1ccc(Cl)cc1Cl)c1c[nH]c2ccccc12 (stereo unspecified)	52.5 µM
CCCCCCCCCC[N+](C)(C)CC/C=C1/c2ccccc2Sc2ccc(Cl)cc21	13.2 µM
CCN(CC(=O)NC(C)(C)C)C(=O)COc1c(Cl)cc(Cl)c2ccc(C)nc12	41.4 µM
Cc1cc(Cl)c(OCCCNCc2ccccc2)c(Br)c1	68.6 µM
CCn1cc(C(=O)O)c(=O)c2cnc(N3CCNCC3)nc21	25.7 µM
C#CCOCCOCCOCCNc1nc(N2CCN(C(=O)[C@H]([C@@H](C)CC)n3cc([C@@H](N)Cc4ccc(O)cc4)nn3)CC2)nc(N2CCN(C(=O)[C@H](Cc3cc4ccccc4[nH]3)n3cc([C@@H](N)CC(C)C)nn3)CC2)n1	102 µM
O=C(CC(=O)c1ccccc1O)c1cccc(F)c1	20.8 µM
CN1CCN(c2c(F)cc3c(=O)c(C(=O)O)cn4c3c2OCN4C)CC1	< 0.23 µM
COc1cc(/C=C/[N+](=O)[O-])ccc1O	102 µM
Oc1cccc(C=NCc2ccccc2)c1O	51.3 µM
C#CCOCCOCCOCCNc1nc(N2CCN(C(=O)CCCCCCCCCCNC(=O)[C@@H](CCSC)n3cc(CCO)nn3)CC2)nc(N2CCN(C(=O)CCCCCCCCCCNC(=O)[C@H]([C@@H](C)CC)n3cc(CCCCN=C(N)N)nn3)CC2)n1	82.7 µM
CCc1cccc(NC(=O)CSC2=NS(=O)(=O)c3ccccc32)c1	37.3 µM
CN(C)[C@@H]1C(=O)C(C(N)=O)=C(O)[C@@]2(O)C(=O)C3=C(O)c4c(O)cccc4[C@@](C)(O)C3[C@H](O)C12 (stereo partly specified)	1.03 µM and 4.02 µM
COc1cc(CNC2CCCC2)cc(Cl)c1OCc1ccccc1Cl	71.2 µM
Cc1ccc2c(c1)C1CN(C)CCC1N2Sc1ccccc1[N+](=O)[O-] (stereo unspecified)	43.7 µM
Cc1ccc(CNCCC2=CCCCC2)cc1	46.1 µM
CCn1cc(C(=O)O)c(=O)c2cc(F)c(N3CCN(C(=S)NC(=O)c4cc(OC)cc(OC)c4)CC3)cc21	45.8 µM
